Experimental findings from article PMC9241695, “Selective Metal Chelation by a Thiosemicarbazone Derivative Interferes with Mitochondrial Respiration and Ribosome Biogenesis in Candida albicans” (Microbiology Spectrum, 2022) are described below.

Series [1] concerns C. albicans SC5314. Put plainly: Respiratory activity by CTC staining. Format: cell-based, Candida albicans. The following applies: 6 h, 1 mM CTC; 19ak 0.125-1 μg/mL, TPEN 0.05-0.4 μg/mL. As for the experimental part: h (for C. albicans, C. krusei, C. tropicalis, C. parapsilosis) or 48 h (for C. neoformans, A. fumigatus). The MIC was determined based on visible growth inhibition compared with the control. All experiments were performed in duplicate.
Cytotoxicity testing. The cell lines HK2 and 16HBE were used to evaluate the cytotoxicity of 19ak, 19k and 19t. Cells in DMEM containing 10% fetal bovine serum (Gibco) were seeded in 96-well tissue culture plates at a cell density of 1 × 10^4 cells/mL and incubated for 24 h to allow adhesion. The supernatant was then replaced with fresh DMEM containing various concentrations of 19ak, 19k and 19t. […]
The effects of the compounds on cell proliferation were detected by measuring the absorbance at 570 nm in a microplate reader (BioTek, VT, USA). […]
the fluorescent complex […] (CTF) is commonly used to indicate the intensity of microbial respiration. C. albicans SC5314 treated with 19ak was stained with 1 mM CTC for 30 min, followed by flow cytometry analysis of respiratory activity based on fluorescence intensity. Images of cells were obtained using a fluorescence microscope (IX71, Olympus, Tokyo, Japan). […] After an additional 2 h of incubation, OD450 in each well was detected with a microplate reader. […]
(§1) Mitochondrial complex activity was expressed as nmol/min/mg protein. […]

The subject of series [2] is mammalian cells of 16HBE or HepG2. Put plainly: CCK-8 reduction assay, mitochondrial dehydrogenase activity. The note with it: 5 μg/mL, 12 h or 48 h. It counts as cell-based, human. The procedure: the fluorescent complex […] (CTF) is commonly used to indicate the intensity of microbial respiration. C. albicans SC5314 treated with 19ak was stained with 1 mM CTC for 30 min, followed by flow cytometry analysis of respiratory activity based on fluorescence intensity. Images of cells were obtained using a fluorescence microscope (IX71, Olympus, Tokyo, Japan). The Cell Counting Kit-8 (CCK-8) assay is used to measure the dehydrogenase activity in the mitochondria of C. albicans or mammalian cells. C. albicans SC5314 (5 × 10^6 cells/mL in RPMI1640 medium) were treated with different concentrations of 19ak in 96-well plates at 30°C for 12 h or 48 h. 10 μL of CCK-8 solution was added to each well. After an additional 2 h of incubation, OD450 in each well was detected with a microplate reader. […]
Mitochondrial isolation and detection of mitochondrial respiratory chain complex activity. […] The activities of mitochondrial respiratory chain complexes I-IV were determined by using the Micro Mitochondrial Respiratory Chain Complex Activity Assay Kit (Solarbio, Beijing, China). The concentration of protein was determined using the BCA Protein Assay Kit (Beyotime, Haimen, China).
as §1
(In general: Formazan colour is commonly taken as a measure of viable cells.)

The subject of series [3] is C. albicans SC5314. The series is described as follows: Drug resistance study by serial passage. It counts as cell-based, Candida albicans. The note with it: RPMI 1640 medium, 40-day period, passages at 0.5 × MIC.
Series [4] concerns C. albicans SC5314. The series is described as follows: G. mellonella infection model. Format: in vivo, Galleria mellonella. The following applies: 19ak 0.4 μg per larva, FLC 2 μg per larva. As for the experimental part: The G. mellonella infection model was used to evaluate the in vivo activity of 19ak in terms of survival, fungal burden, and histological features. A total of 60 larvae of similar size were selected and randomly allocated to four groups. The last right foreleg of each larva was injected with 10 μL of C. albicans SC5314 suspension (2 × 10^7 CFU/mL). Two hours after infection, the larvae were injected with 10 μL of drug or vehicle as follows for the four groups: 19ak (0.4 μg per larva), FLC (2 μg per larva), control (PBS), and blank control (no injection with C. albicans but injections of sterile PBS twice). The data for the blank control are not shown because this group survived well during the experiment. Failure to respond to light contact with forceps was considered a sign of larval death. In the survival assay, the number of surviving larvae in each group was calculated at the same time every day for 4 days.
To determine fungal burden, larval infection and treatment were performed as described above with groups of 30 larvae each. Each day, five larvae were randomly selected from each group and homogenized with glass beads in 0.5 mL of sterile PBS. The homogenate was serially diluted with sterile PBS, and 5 μL was spread on a yeast-peptone-dextrose solid plate ([62]). Experiments were performed at least three times independently.
We also conducted histopathological studies to explore the therapeutic effects of the drugs on G. mellonella fungal infection. First, the groups of larvae were infected as described above. After 48 h, three larvae from each group were randomly selected and fixed in 4% paraformaldehyde for sectioning and Periodic acid-Schiff (PAS) staining. The tissue was observed and photographed under an Olympus microscope with 40 × magnification (IX71, Olympus, Tokyo, Japan). The experiments were performed independently a minimum of three times.

The structures appear in SMILES notation.

On to `C/C(=N\NC(=S)N(C)C)c1ccccn1` [Compound 19ak], for which the “Mitochondrial respiratory activity (CTC fluorescence intensity)” value in the series with C. albicans SC5314 [1] is “dose-dependently reduced”. In addition, the “Mitochondrial dehydrogenase activity of mammalian cells (CCK-8)” value in series [2] is reported as “minimal inhibitory effect”. In the series with C. albicans SC5314 [3], the “Change of MIC after repeated exposure” value is listed as “did not alter the MIC”. For the same compound, the “Histopathology of infected larvae” value in the series on C. albicans SC5314 [4] (48 h, PAS staining) was “fewer infected areas”. Further, the “Fungal burden of infected larvae” value in the series on C. albicans SC5314 [4] (compared with the control group) was “greatly reduced the fungal burden”. In addition, in the series on C. albicans SC5314 [4] (after 4 days of infection, 2 h after infection), the “Survival rate of infected larvae” value is 67%.
